According to patent publication US8969366B2, “Substituted pyrimidinylpyrrolopyridinone derivatives, process for their preparation and their use as kinase inhibitors” (Nerviano Medical Sciences S.R.L., priority 2009, dated 2015):
Structures can show the parent of a compound that is named as a salt.

Legend:
Assay type in all cases: cell-based
[1] = test system: p-MAPK (T202/Y204) in A375 human melanoma cells, having a mutated B-RAF; assay: p-MAPK (T202/Y204) ArrayScan assay; conditions: A-375, A375 cells treated 1.5 or 2 hours, cytoplasmatic p-MAPK fluorescence intensity, read-out: Array Scan A375 IC50
Method: A375 human melanoma cells, having a mutated B-RAF, are seeded in 384-well poly-lysine coated plates (Matrix) at a density of 1000 cells/well with appropriate medium supplemented with 10% FCS and incubated for 16-24 hours. Cells are treated for 1.5 or 2 hours with increasing doses of compounds (starting dose 10 μM, dilution factor 2.5). At the end of the treatment cells are fixed with p-formaldehyde 3.7% for 15-30 min, then washed twice with D-PBS (80 µl/well) and permeabilized with D-PBS containing 0.1% Triton X-100 and 1% BSA (Sigma-Aldrich) for 15 minutes at room temperature (staining solution). Anti-phospho-MAPK (T202/Y204) monoclonal antibody E10 (Cell Signaling, cat. #9106) diluted 1:100 is added in staining solution and incubated for 1 hour at 37° C. After removal of the primary antibody solution, the anti-mouse Cy™2-conjugated (Green) secondary antibody (Amersham) diluted 1:500 in staining solution containing 2 μg/ml DAPI is added. The plate is incubated for 1 hour at 37° C., washed twice and then red with Cellomics' ArrayScan VTI (4 fields/well, CytoNucTrans algorithm).
The parameter “MEAN_RingAvgIntenCh2”, which measures the mean cytoplasmatic fluorescence intensity associated to p-MAPK staining, is reported as the final result.

[2] = test system: human melanoma cells A375 (with a mutated B-RAF); assay: In vitro cell proliferation assay, A375; conditions: A-375, 72 hours treatment, cell number by ATP monitoring system
Method: (§1) In Vitro Cell Proliferation Assay Exponentially growing human melanoma cells A375 (with a mutated B-RAF) and human melanoma cells Mewo (with wild-type B-Raf) were seeded and incubated at 37° C. in a humidified 5% CO2 atmosphere. After 24 hours, scalar doses of the compound were added to the medium and cells oncubated for 72 hours. At the end of treatment, cells were washed and counted. Cell number was determined by a cellular adenosine triphosphate monitoring system. Cell proliferation was compared to control cells and the concentration inhibiting cell growth by 50% was calculated. p-MAPK (T202/Y204) ArrayScan Assay

[3] = test system: human melanoma cells Mewo (with wild-type B-Raf); assay: In vitro cell proliferation assay, Mewo; conditions: 72 hours treatment, cell number by ATP monitoring system
Method: as §1

Row | SMILES | IC50 [1] [nM] | IC50 [2] [nM] | IC50 [3] [nM]
1 | Cc1csc(C(=O)Nc2nccc(-c3cc4c(n3C)CCNC4=O)n2)c1 [compound 14, 4-Methyl-thiophene-2-carboxylic acid [4-(1-methyl-4-oxo-4,5,6,7-tetrahydro-1H-pyrrolo[3,2-c]pyridin-2-yl)-pyrimidin-2-yl]-amide] | 1450 | 770 | 2640
2 | Cn1c(-c2ccnc(NC(=O)c3cc(Br)cs3)n2)cc2c1CCNC2=O [compound 4, 4-Bromo-thiophene-2-carboxylic acid[4-(1-methyl-4-oxo-4,5,6,7-tetrahydro-1H-pyrrolo[3,2-c]pyridin-2-yl)-pyrimidin-2-yl]-amide] | 460 | 490 | 2450
3 | Nc1ncc(C#Cc2cccc(O)c2)c(-c2cc3c(n2CCF)CCNC3=O)n1 [compound 3, 2-[2-Amino-5-(3-hydroxy-phenylethynyl)-pyrimidin-4-yl]-1-(2-fluoro-ethyl)-1,5,6,7-tetrahydro-pyrrolo[3,2-c]pyridin-4-one] | 710 | 6460 | 4750
4 | Cn1c(-c2ccnc(/C=C/c3cccc(Cl)c3)n2)cc2c1CCNC2=O [compound 9, 2-{2-[(E)-2-(3-Chloro-phenyl)-vinyl]-pyrimidin-4-yl}-1-methyl-1,5,6,7-tetrahydro-pyrrolo[3,2-c]pyridin-4-one] | 400 | 370 | 1220
5 | Cn1c(-c2ccnc(C#Cc3cccc(Cl)c3)n2)cc2c1CCNC2=O [compound 8, 2-[2-(3-Chloro-phenylethynyl)-pyrimidin-4-yl]-1-methyl-1,5,6,7-tetrahydro-pyrrolo[3,2-c]pyridin-4-one] | 930 | 210 | 820
6 | Cn1c(-c2ccnc(NC(=O)c3ccsc3)n2)cc2c1CCNC2=O [compound 12, Thiophene-3-carboxylic acid [4-(1-methyl-4-oxo-4,5,6,7-tetrahydro-1H-pyrrolo-[3,2-c]pyridin-2-yl)-pyrimidin-2-yl]-amide] | 2380 | 2500 | 6410
7 | Cn1c(-c2ccnc(NCc3cc(Br)cs3)n2)cc2c1CCNC2=O [compound 7, 2-{2-[(4-Bromo-thiophen-2-ylmethyl)-amino]-pyrimidin-4-yl}-1-methyl-1,5,6,7-tetrahydro-pyrrolo[3,2-c]pyridin-4-one hydrochloride] | 2140 | 2910 | 9760
8 | Cn1c(-c2ccnc(NC(=O)c3cccc(Cl)c3)n2)cc2c1CCNC2=O [compound 10, 3-Chloro-N-[4-(1-methyl-4-oxo-4,5,6,7-tetrahydro-1H-pyrrolo[3,2-c]pyridin-2-yl)-pyrimidin-2-yl]-benzamide] | 1600 | 450 | 1980
9 | Cn1c(-c2ccnc(NC(=O)c3cccs3)n2)cc2c1CCNC2=O [compound 11, Thiophene-2-carboxylic acid [4-(1-methyl-4-oxo-4,5,6,7-tetrahydro-1H-pyrrolo[3,2-c]pyridin-2-yl)-pyrimidin-2-yl]-amide] | 2910 | 1700 | 2420
10 | Cn1c(-c2ccnc(NCc3cccc(Cl)c3)n2)cc2c1CCNC2=O [compound 6, 2-[2-(3-Chloro-benzylamino)-pyrimidin-4-yl]-1-methyl-1,5,6,7-tetrahydro-pyrrolo[3,2-c]pyridin-4-one hydrochloride] | 2110 | 1760 | 5790
11 | Cn1c(-c2nc(N)ncc2C#Cc2cccc(O)c2)cc2c1CCNC2=O [compound 2, 2-[2-Amino-5-(3-hydroxy-phenylethynyl)-pyrimidin-4-yl]-1-methyl-1,5,6,7-tetrahydro-pyrrolo[3,2-c]pyridin-4-one] | > 10000 | 6090 | 7910
12 | Cn1c2c(c(-c3cccc(NC(=O)Nc4ccc(C(F)(F)F)cc4)c3)c1-c1ccnc(N)n1)C(=O)NCC2 [compound 1, 1-{3-[2-(2-Amino-pyrimidin-4-yl)-1-methyl-4-oxo-4,5,6,7-tetrahydro-1H-pyrrolo-[3,2-c]pyridin-3-yl]-phenyl}-3-(4-trifluoromethyl-phenyl)-urea] | 5600 | 8220 | > 10000
